Assay results taken from paper PMC7917901 (Marine Drugs, 2021).
Like-named read-outs stand apart in the source and are kept apart here.

Assays:
[1] = tested on: mechanical and cold allodynia; conditions: cited from earlier work
C57BL/6J mice [2] = conditions: mouse, in vivo
[3] = to oxalate and dichloro 1,2-diaminocyclohexyl-platinum complex; ref [48]; cited from earlier work
Description: Although both oxaliplatin and cisplatin are platinum based antineoplastic drugs, and both act by DNA alkylation, they differ markedly in their ability to elicit pain syndromes. […] The most distinctive feature of oxaliplatin is ...

C57BL/6J mice [4] = assay: Induction of mechanical allodynia and general observations after intraplantar oxaliplatin or cisplatin; conditions: 40 µg/paw i.pl.
[5] = tested on: nerve injury-induced hyperalgesia in mice; conditions: mouse, in vivo, sc; cited from earlier work
[6] = human, in vivo; cited from earlier work

In the case of `O=C1[O][Pt]2([NH][C@@H]3CCCC[C@H]3[NH]2)[O]C1=O` [oxaliplatin], the “Type of allodynia caused” value ([1]; in vivo) is given as “causes both mechanical and cold allodynia”, the “Adverse signs after platinum drug injection” value (C57BL/6J mice [2]) is given as “maintained healthy appearance and body weight with no sign of licking, shaking, or lameness of the injected paw” and the “Mechanical PWT after oxaliplatin” value (C57BL/6J mice [2]) is given as 1.4 ± 0.1 g. The “Non-enzymatic transformation” value [3] was “fast, non-enzymatic transformation”.
In the case of `N.N.[Cl][Pt][Cl]` [cisplatin], the “Type of allodynia caused” value ([1]; ref [45],[46],[47]) is given as “only evokes mechanical allodynia”, the “Adverse signs after platinum drug injection” value (C57BL/6J mice [4]) is given as “No sign of adverse effects including, licking, shaking, or lameness of the injected paws was observed” and the “Mechanical PWT after cisplatin” value (C57BL/6J mice [4]; right hind paw, 24 h after injection, mean ± SEM, n = 18, naïve 3.3 ± 0.1 g, p < 0.0001) is given as 1.9 ± 0.1 g.
For `COC(=O)C1=C(C)NC(C)=C(C(=O)OC)C1c1ccccc1[N+](=O)[O-]` [nifedipine], the “Effect on nerve injury-induced hyperalgesia” value [5] is given as “ineffective”.
In the case of `CSCC[C@@H]1NC(=O)[C@H](CC(C)C)NC(=O)[C@H](CCCNC(=N)N)NC(=O)[C@H](CO)NC(=O)[C@@H]2CSSC[C@@H]3NC(=O)[C@H](CO)NC(=O)CNC(=O)[C@H]([C@@H](C)O)NC(=O)[C@H](CSSC[C@H](N)C(=O)N[C@@H](CCCCN)C(=O)NCC(=O)N[C@@H](CCCCN)C(=O)NCC(=O)N[C@@H](C)C(=O)N[C@@H](CCCCN)C(=O)N2)NC(=O)[C@H](CSSC[C@@H](C(N)=O)NC(=O)[C@H](CCCCN)NC(=O)CNC(=O)[C@H](CO)NC(=O)[C@H](CCCNC(=N)N)NC3=O)NC(=O)[C@H](CC(=O)O)NC(=O)[C@H](Cc2ccc(O)cc2)NC1=O` [MVIIA], the “Dose limiting side effects” value [6] is given as “dose limiting side effects including dizziness, nystagmus, sedation, blurred vision, and orthostatic hypotension”.
